# Measured values published in patent publication US20250177340A1, “Tartaric Acid Analogs and Uses Thereof” (Lapix Therapeutics, Inc., priority 2021, published 2025).
# Tests used:
# Granzyme B and IFN-γ = assay: Dose-response of GranzymeB/IFN-γ double positivity in murine CD8+ T-cells, Example 9; format: cell-based, C57BL/6 mice; settings: Mus musculus, T-cell
# Method: A dose-response analysis of compounds B-E in murine CD8+ T-cells was conducted to evaluate the effect of dose on GranzymeB/IFN-γ double positivity.
# Compound C, D and E were first dissolved in a small volume of DMSO before diluting to the final desired concentration.
# Splenocytes from naïve C57BL/6 mice were stained with CFSE, prepared, cultured, and dosed. Cells were seeded at 2×10^5 cells/well. Negative control was dosed with 10 ng/ml IL-2. After ConA stimulation (10 μg/ml), cells were dosed with log 3 dilution of each compound from 3×10^−9 to 30 µM in triplicates. All wells were dosed with 10 ng/ml of IL-2.
# Flow cytometer analysis was performed to assess percent CD8+ T-cells and percent activation by double staining for Granzyme B (GzmB) and IFN-γ as described in Example 7. Concentration versus response curve was fitted to a 4- or 5-parameter log-logistic model using the “dre” package in “R”. Both EC50 and EC90 were obtained by model fitting.
# KLRG-1 = assay: Percent KLRG-1+/CD8+ T-cells in splenocytes after a single dose, melanoma murine model; format: in vivo, mice
# Method: (§1) The pharmacodynamic (PD) effects of a single IV dose of Compound B in a melanoma murine model were evaluated. B16F10 melanoma cells were grown in RPMI 1640 media supplemented with 10% FBS and antibiotics (penicillin/streptomycin) using T75 flasks. When cells reached 70-80% confluency, they were treated with 3 ml of 0.25% Trypsin/EDTA. Afterward, detached cells were harvested. A single-cell suspension was prepared in PBS. An IV injection of 10^5 cells in mice marked day −3 of the experiment.
# (§2) Animals were housed four per cage, and had access to food and water ad libitum. Compound B was dissolved in sterile PBS, and pH was adjusted to approximately 7.5. Sterile PBS served as control.
# (§3) Three days after the IV injection of melanoma cells, animals in the baseline group (n=3) were sacrificed and their spleens were collected for KLRG-1, CTLA-4, and PD-1 analysis. At each predetermined time-point (24, 48, and 120 hours after dosing) three animals from each group were sacrificed for splenocyte analysis of KLRG-1, CTLA-4, and PD-1 expression levels, and expression levels were compared to baseline.
# (§4) Spleens collected for splenocyte analysis were prepared into a single-cell suspension for cellular phenotyping by flow cytometry. Cells were stained and gated for CD8. Percent KLRG-1+, CTLA-4+, and PD-1+ CD8+ T-cells were evaluated using flow cytometry.
# (§5) The PD effects of a single IV dose of Compound C were evaluated in a melanoma murine model conducted as described in Example 10. […] This study also evaluated whether Compound C was pharmacodynamically active orally.
# (§6) In a prior study, Compound C was dosed at 1 mg IV QD for seven days. […] A single PO dose was chosen to confirm oral activity of Compound C. Compound C was dissolved in DMSO, and then diluted in sterile PBS. pH was adjusted to approximately 7.5.
# (§7) The oral and intravenous PD effects of a single dose of Compound E were evaluated in a melanoma murine model conducted as described in Example 10.
# (§8) Compound E was dissolved in DMSO, and then diluted in sterile PBS. pH was adjusted to approximately 7.5.
# PD-1 [1] = assay: Percent PD-1+/CD8+ T-cells in splenocytes after a single dose, melanoma murine model; format: in vivo, mice
# Method: as §1, §2, §3, §4, §5, §6, §7, §8
# Oral bioavailability = format: in vivo; settings: mouse, in vivo; suggested from 2.5 mg oral dose as efficacious as 0.25 mg IV; not evaluated in a PK study
# KLRG1 = assay: Percent KLRG1+ T-cells in spleens, single dose on Day 7 (Examples 17, 19, 20); format: in vivo, C57BL6 mice
# Method: (§9) Melanoma B16F10 cells were injected IV into C57BL6 mice on Day 0. On Day 7, mice were administered a single dose of 0.1 mg, 0.25 mg, or 1 mg of Compound E IV or 2.5 mg Compound E PO. One group was left untreated. Three mice at each time point were sacrificed, and their spleens were extracted. Percent KLRG1+ and PD-1^+ T-cells were quantified. Briefly, single-cell suspensions prepared from the extracted spleens were prepared and stained for KLRG1, PD-1 and CD8, and analyzed by flow cytometry.
# (§10) Melanoma B16F10 cells were injected IV into C57BL6 mice on Day 0. On Day 7, mice were administered a single dose of 0.03 mg, 0.1 mg, 0.3 mg or 1 mg Compound F IV or 1 mg Compound F PO. One group was left untreated. Three mice at each time point were sacrificed, and their spleens were extracted. Percent KLRG1+ and PD-1^+ T-cells were quantified. Briefly, single-cell suspensions prepared from the extracted spleens were prepared and stained for KLRG1, PD-1 and CD8, and analyzed by flow cytometry.
# (§11) Melanoma B16F10 cells were injected IV into C57BL6 mice on Day 0. On Day 7, mice were administered a single dose of 0.1 mg, 0.4 mg, or 1 mg Compound G IV or 1 mg Compound G PO. One group was left untreated. Three mice at each time point were sacrificed, and their spleens were extracted. Percent KLRG1+ and PD-1^+ T-cells were quantified. Briefly, single-cell suspensions prepared from the extracted spleens were prepared and stained for KLRG1, PD-1 and CD8, and analyzed by flow cytometry.
# PD-1 [2] = assay: Percent PD-1+ T-cells in spleens, single dose on Day 7 (Examples 17, 19, 20); format: in vivo, C57BL6 mice; settings: E 0.1, 0.25, 1 mg IV or 2.5 mg PO, F 0.03-1 mg IV or 1 mg PO, G 0.1, 0.4, 1 mg IV or 1 mg PO
# Method: as §9, §10, §11
# B16 F10 melanoma cells = assay: Tumor growth inhibition using Compound E (Example 18); format: in vivo, C57BL/6 mice; settings: 0.3 or 3 mg orally daily for seven days
# Method: C57BL/6 mice received 10^5 B16 F10 melanoma cells via SC injection on day 0. At day 7, mice were treated orally with Compound E at 0.3 or 3 mg daily for seven days. Tumor growth inhibition was monitored until all untreated animals reached end point, defined as death by disease (found dead in the cage) or tumor size of 1,000 mm^3 or greater.
# [3] = 0.1 mg/mouse IV single dose, 24 h
# [4] = 0.1 mg/mouse IV single dose, 48 h
# [5] = 0.1 mg/mouse IV single dose, 120 h
# [6] = 0.25 mg/mouse IV single dose, 24 h
# [7] = 0.25 mg/mouse IV single dose, 48 h
# [8] = 0.25 mg/mouse IV single dose, 120 h
# [9] = 1 mg/mouse IV single dose, 24 h
# [10] = 1 mg/mouse IV single dose, 48 h
# [11] = 1 mg/mouse IV single dose, 120 h
# [12] = 2.5 mg/mouse po single dose, 24 h
# [13] = 2.5 mg/mouse po single dose, 48 h
# [14] = 2.5 mg/mouse po single dose, 120 h
smiles,measurement,setting,value
"O=C(O)[C@H](O)[C@@H](O)C(=O)NCCC(c1ccccc1)c1ccccc1 [Compound E, (2R,3R)-4-((3,3-diphenylpropyl)amino)-2,3-dihydroxy-4-oxobutanoic acid]",EC50,Granzyme B and IFN-γ; 4-parameter model,93 nM
same,EC90,Granzyme B and IFN-γ; 4-parameter model,120000 nM
same,EC50,Granzyme B and IFN-γ; 5-parameter model,23 nM
same,EC90,Granzyme B and IFN-γ; 5-parameter model,600 nM
same,Emax,"Granzyme B and IFN-γ; FIG. 4, 5-parameter fit, read-out: maximal response (GzmB/IFN-γ double positive CD8+ T-cells)",~60%
same,"KLRG-1+/CD8+ T-cells, mean",KLRG-1; [3],0.7%
same,"KLRG-1+/CD8+ T-cells, mean",KLRG-1; [4],1.2%
same,"KLRG-1+/CD8+ T-cells, mean",KLRG-1; [5],1.0%
same,"KLRG-1+/CD8+ T-cells, mean",KLRG-1; [6],0.6%
same,"KLRG-1+/CD8+ T-cells, mean",KLRG-1; [7],0.9%
same,"KLRG-1+/CD8+ T-cells, mean",KLRG-1; [8],0.6%
same,"KLRG-1+/CD8+ T-cells, mean",KLRG-1; [9],1.3%
same,"KLRG-1+/CD8+ T-cells, mean",KLRG-1; [10],0.6%
same,"KLRG-1+/CD8+ T-cells, mean",KLRG-1; [11],1.2%
same,oral pharmacodynamic activity,KLRG-1; 2.5 mg PO single dose,effective after oral administration
same,"KLRG-1+/CD8+ T-cells, mean",KLRG-1; [12],0.6%
same,"KLRG-1+/CD8+ T-cells, mean",KLRG-1; [13],1.9%
same,"KLRG-1+/CD8+ T-cells, mean",KLRG-1; [14],1.2%
same,time of nadir of exhaustion markers after dosing,"KLRG-1; single dose, KLRG-1, CTLA-4, PD-1",24 h
same,"PD-1+/CD8+ T-cells, mean",PD-1 [1]; [3],35%
same,"PD-1+/CD8+ T-cells, mean",PD-1 [1]; [4],26%
same,"PD-1+/CD8+ T-cells, mean",PD-1 [1]; [5],37%
same,"PD-1+/CD8+ T-cells, mean",PD-1 [1]; [6],23%
same,"PD-1+/CD8+ T-cells, mean",PD-1 [1]; [7],26%
same,"PD-1+/CD8+ T-cells, mean",PD-1 [1]; [8],32%
same,"PD-1+/CD8+ T-cells, mean",PD-1 [1]; [9],23%
same,"PD-1+/CD8+ T-cells, mean",PD-1 [1]; [10],30%
same,"PD-1+/CD8+ T-cells, mean",PD-1 [1]; [11],29%
same,"PD-1+/CD8+ T-cells, mean",PD-1 [1]; [12],25%
same,"PD-1+/CD8+ T-cells, mean",PD-1 [1]; [13],32%
same,"PD-1+/CD8+ T-cells, mean",PD-1 [1]; [14],30%
same,decrease from baseline in PD-1+/CD8+ T-cell,"PD-1 [1]; single dose, 0.25 mg or higher, 24 hours",approximately 39%
same,bioavailability,Oral bioavailability,≥ 10%
same,"activity after oral administration (KLRG1+, PD1+ T-cells)","KLRG1; single PO dose: E 2.5 mg, F 1 mg, G 1 mg",effective after oral administration
same,percent KLRG1+ T-cells compared to untreated animals,"KLRG1; single dose, E 0.1, 0.25, 1 mg IV or 2.5 mg PO, F 0.03-1 mg IV or 1 mg PO, G 0.1, 0.4, 1 mg IV or 1 mg PO",reduction
same,percent PD1+ T-cells compared to untreated animals,PD-1 [2],reduction
same,tumor growth,B16 F10 melanoma cells,dose-dependent inhibition of tumor growth
